Key:
Format in all cases: biochemical
Thrombin = target: T1, Thrombin (Homo sapiens, UniProt P00734); experiment: Thrombin reaction rates, spectrophotometric, change in absorbance at 496 nm; details: 37° C., 0.10M ACES pH 7.0, 0.05M KCl
T1 construct: Thrombin reaction rates were determined with the water soluble substrate
Procedure: Identical test conditions were used including temperature 37° C., volume 1.0 ml., and buffer 0.10M ACES pH 7.0, with 0.05M KCl. Since sarcosyl (Sar) and carbobenzyloxy (Cbz) have similar molecular weights, both were tested at 100 ug/ml.

[1] = target: T2, Purified human alpha-thrombin (Homo sapiens, UniProt P00734); experiment: Spectrophotometric assay of thrombin with (Pyro-Pro-Arg)2-Rhodamine 110; details: substrate 78 ug/mL, 37° C., pH 8.0
T2 construct: Purified human alpha-thrombin; purchased Dr. John Fenton, N.Y. State Dept. of Health
Procedure: Dose response curves were determined for three different concentrations of thrombin by measuring absorbance increases at 468 nm and 496 nm. Working thrombin dilutions were prepared as follows: Purified human alpha-thrombin, Dr. John Fenton, N.Y. State Dept. of Health, was diluted to 1.04 U/mL, 0.52 U/mL and 0.25 U/mL in 0.05M HEPES, pH 8.0, with 0.25M NaCl and maintained at 4° C. The substrate, (Pyro-Pro-Arg)2 -Rhodamine 110, was dissolved to 78 ug/mL in 0.20M HEPES, pH 8.0, with 0.3M KCl. Disposable acrylic cuvettes with 1 cm light path, Centaur Sciences, Inc. were used. A one mL aliquot of substrate was pipetted into a cuvette and warmed to 37° C. in a heating block. A one mL sample of a working thrombin dilution was added to the cuvette. After mixing the thrombin and substrate, absorbances at 468 nm and 496 nm were determined for 30 seconds with a Hewlett-Packard Model 8450A spectrophotometer. The increased absorbances over the timed intervals were: […]

coagulation factor VIII = experiment: Fluorescent coagulation factor VIII assay based on APTT, substrate detects thrombin generation
Procedure: (§1) Fluorescent assays for coagulation factors VIII and IX, based on the activated partial thromboplastin time (APTT) assay, were performed with the substrate (Sar-Pro-Arg)2 -Rhodamine 110. The synthetic substrate was used to detect thrombin generation, substituting for the natural substrate fibrinogen present in both human and animal plasmas. Standard calibration curves were constructed with normal plasma, Thromboscreen™ from Curtin Matheson Scientific, which was used to correct factor VIII and IX deficient plasmas, George King Biomedical. The APTT reagent contained purified soybean phospholipids and ellagic acid activator, Dade Diagnostics. […] A Turner model 430 spectrofluorometer with a temperature controlled sample cell holder (37° C.) was used to make the kinetic fluorescent measurements. Excitation and emission wavelengths were set at 468 nm and 525 nm, respectively. Glass test tubes were used to perform the plasma activations and disposable acrylic cuvettes, Centaur Sciences, Inc., were used for the fluorescent measurements.
(§2) A 100 uL aliquot of 0.85% saline or normal plasma diluted in saline was added to a test tube followed by the sequential addition of 100 uL of factor deficient plasma and 100 uL of the APTT reagent. The test tube was incubated in a heating block at 37° C. for 2 minutes, at which time 100 uL of 25 mM CaCl2 was added and the incubation was continued for an additional 30 seconds. The incubation mixture was transferred to a cuvette containing 2.0 mL of the substrate solution prewarmed to 37° C. and the fluorescent rate measured. Linear dose response curves were obtained for factors VIII and IX between 1% and 100% of normal: […]

coagulation factor IX = experiment: Fluorescent coagulation factor IX assay based on APTT, substrate detects thrombin generation
Procedure: as §1, §2

[2] = substrate 80 micromolar, 15% ethanol for the Cbz substrate
[3] = Factor level 1 % normal, plasma dilution 1:250
[4] = Factor level 10 % normal, plasma dilution 1:25
[5] = Factor level 100 % normal, plasma dilution 1:2.5
[6] = Factor level <1 % normal (no plasma dilution), ex 468 nm, em 525 nm, quinine sulfate = 1.0

| Absorbance, 0-30 seconds, 468 nm ([1]; Thrombin 0.26 U/mL) | Absorbance, 0-30 seconds, 496 nm ([1]; Thrombin 0.26 U/mL) | Absorbance, 0-30 seconds, 468 nm ([1]; Thrombin 0.52 U/mL) | Absorbance, 0-30 seconds, 496 nm ([1]; Thrombin 0.52 U/mL) | Absorbance, 0-30 seconds, 468 nm ([1]; Thrombin 1.04 U/mL) | Absorbance, 0-30 seconds, 496 nm ([1]; Thrombin 1.04 U/mL) | Substance | Change In Absorbance, 496 nm/Unit Thrombin/mL (Thrombin; [2]) | Change In Absorbance, 496 nm/Unit Thrombin/mL (Thrombin; substrate 800 micromolar) | Relative Fluorescence, Factor VIII (coagulation factor VIII; [3]) | Relative Fluorescence, Factor VIII (coagulation factor VIII; [4]) | Relative Fluorescence, Factor VIII (coagulation factor VIII; [5]) | Relative Fluorescence, Factor VIII (coagulation factor VIII; [6]) | Relative Fluorescence, Factor IX (coagulation factor IX; [3]) | Relative Fluorescence, Factor IX (coagulation factor IX; [4]) | Relative Fluorescence, Factor IX (coagulation factor IX; [5]) | Relative Fluorescence, Factor IX (coagulation factor IX; [6]) |
| --- | --- | --- | --- | --- | --- | --- | --- | --- | --- | --- | --- | --- | --- | --- | --- | --- |
| – | – | – | – | – | – | (Cbz-L-Pro-Arg)2 -Rhodamine 110 [(Cbz-Pro-Arg)2 -Rhodamine 110, reference compound] | 0.122 | – | – | – | – | – | – | – | – | – |
| 0.0461 | 0.0462 | 0.0912 | 0.0860 | 0.1766 | 0.1671 | (H-L-Pyro-Pro-Arg)2 -Rhodamine 110 [(Pyro-Pro-Arg)2 -Rhodamine 110] | – | – | – | – | – | – | – | – | – | – |
| – | – | – | – | – | – | (H-Sar-Pro-Arg)2 -Rhodamine 110 [(Sar-Pro-Arg)2 -Rhodamine 110] | 1.700 | 2.872 | 0.121 | 0.148 | 0.333 | 0.119 | 0.127 | 0.154 | 0.333 | 0.121 |

From patent US4801534A, “Water soluble zanthylium derivative substrates” (Coulter Electronics, Inc., priority 1987, dated 1989)
